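Grown in 96-well plates, cells were treated for 48 hours with each compound at five concentrations. Insufficient inhibition: endpoint recorded as highest concentration tested. GI50 is the concentration that inhibits growth by half.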 Active and inactive are the calls of the source. No stated cut-off is given here; in the data, active = GI50 up to about 1.1 µM and inactive = higher.
Key:
Assay in all cases: DTP human tumour cell line panel, 48 h
RPMI-8226 = test system: RPMI-8226
SNB-75 = test system: SNB-75
SR = test system: SR
OVCAR-5 = test system: OVCAR-5
HL-60 = test system: HL-60
HT-29 = test system: HT-29
MDA-N = test system: MDA-N
SF-539 = test system: SF-539
NCI-H522 = test system: NCI-H522
CCRF-CEM = test system: CCRF-CEM
M14 = test system: M14
A498 = test system: A498
KM12 = test system: KM12
HOP-92 = test system: HOP-92
HCT-15 = test system: HCT-15
MCF7 = test system: MCF7
NCI-H23 = test system: NCI-H23
NCI/ADR-RES = test system: NCI/ADR-RES
SF-295 = test system: SF-295
SW-620 = test system: SW-620
EKVX = test system: EKVX
SN12C = test system: SN12C
SK-MEL-28 = test system: SK-MEL-28
MDA-MB-231 = test system: MDA-MB-231
HCT-116 = test system: HCT-116
MDA-MB-435 = test system: MDA-MB-435
COLO 205 = test system: COLO 205
CAKI-1 = test system: CAKI-1
TK-10 = test system: TK-10
DU-145 = test system: DU-145
NCI-H460 = test system: NCI-H460
Hs-578T = test system: Hs-578T
RXF 393 = test system: RXF 393
UO-31 = test system: UO-31
UACC-257 = test system: UACC-257
SK-MEL-5 = test system: SK-MEL-5
OVCAR-8 = test system: OVCAR-8
A549 = test system: A549
IGROV-1 = test system: IGROV-1
PC-3 = test system: PC-3
SK-MEL-2 = test system: SK-MEL-2
MOLT-4 = test system: MOLT-4
ACHN = test system: ACHN
OVCAR-4 = test system: OVCAR-4
LOX IMVI = test system: LOX IMVI
K562 = test system: K562
UACC-62 = test system: UACC-62
U-251 = test system: U-251
SF-268 = test system: SF-268
SNB-19 = test system: SNB-19
786-0 = test system: 786-0
Malme-3M = test system: Malme-3M
OVCAR-3 = test system: OVCAR-3
SK-OV-3 = test system: SK-OV-3
T47D = test system: T47D
HOP-62 = test system: HOP-62
NCI-H226 = test system: NCI-H226

CCCCCCCCCCCCCCCCCCOC[C@H](COP(=O)(O)O[C@H]1[C@H](O)[C@@H](O)[C@H](O)C[C@H]1O)OC
GI50 (RPMI-8226): 11.8 µM (inactive)
GI50 (SNB-75): 13 µM (inactive)
GI50 (SR): 12.1 µM (inactive)

CN(CC(=O)O)c1ncc2c(n1)-c1ccccc1OC2
GI50 (OVCAR-5): > 100 µM (inactive)
GI50 (HL-60): > 100 µM (inactive)
GI50 (HT-29): > 100 µM (inactive)
GI50 (MDA-N): > 100 µM (inactive)
GI50 (SF-539): > 100 µM (inactive)
GI50 (NCI-H522): > 100 µM (inactive)
GI50 (CCRF-CEM): > 100 µM (inactive)
GI50 (M14): > 100 µM (inactive)
GI50 (A498): > 100 µM (inactive)
GI50 (KM12): > 100 µM (inactive)
GI50 (HOP-92): > 100 µM (inactive)
GI50 (HCT-15): > 100 µM
GI50 (MCF7): > 100 µM (inactive)
GI50 (NCI-H23): > 100 µM (inactive)
GI50 (NCI/ADR-RES): > 100 µM (inactive)
GI50 (SF-295): > 100 µM (inactive)
GI50 (SW-620): > 100 µM (inactive)
GI50 (EKVX): > 100 µM (inactive)
GI50 (SN12C): > 100 µM (inactive)
GI50 (SK-MEL-28): > 100 µM (inactive)
GI50 (MDA-MB-231): > 100 µM (inactive)
GI50 (HCT-116): > 100 µM (inactive)
GI50 (MDA-MB-435): > 100 µM (inactive)
GI50 (RPMI-8226): > 100 µM (inactive)
GI50 (COLO 205): > 100 µM (inactive)
GI50 (CAKI-1): > 100 µM (inactive)
GI50 (SNB-75): > 100 µM (inactive)
GI50 (TK-10): > 100 µM (inactive)
GI50 (DU-145): > 100 µM (inactive)
GI50 (NCI-H460): > 100 µM (inactive)
GI50 (Hs-578T): > 100 µM (inactive)
GI50 (RXF 393): > 100 µM (inactive)
GI50 (UO-31): > 100 µM (inactive)
GI50 (UACC-257): > 100 µM (inactive)
GI50 (SR): > 100 µM (inactive)
GI50 (SK-MEL-5): > 100 µM (inactive)
GI50 (OVCAR-8): > 100 µM (inactive)
GI50 (A549): > 100 µM (inactive)
GI50 (IGROV-1): > 100 µM (inactive)
GI50 (PC-3): > 100 µM (inactive)
GI50 (SK-MEL-2): > 100 µM (inactive)
GI50 (MOLT-4): > 100 µM (inactive)
GI50 (ACHN): > 100 µM (inactive)
GI50 (OVCAR-4): > 100 µM (inactive)
GI50 (LOX IMVI): > 100 µM (inactive)
GI50 (K562): > 100 µM (inactive)
GI50 (UACC-62): > 100 µM (inactive)
GI50 (U-251): > 100 µM (inactive)
GI50 (SF-268): > 100 µM (inactive)
GI50 (SNB-19): > 100 µM (inactive)
GI50 (786-0): > 100 µM (inactive)
GI50 (Malme-3M): > 100 µM (inactive)

N=C(N)SCCc1ccccn1
GI50 (OVCAR-5): > 100 µM (inactive)
GI50 (HL-60): > 100 µM (inactive)
GI50 (OVCAR-3): > 100 µM (inactive)
GI50 (SF-539): > 100 µM (inactive)
GI50 (NCI-H522): > 100 µM (inactive)
GI50 (CCRF-CEM): > 100 µM (inactive)
GI50 (M14): > 100 µM (inactive)
GI50 (SK-OV-3): > 100 µM (inactive)
GI50 (KM12): > 100 µM (inactive)
GI50 (HOP-92): > 100 µM (inactive)
GI50 (HCT-15): > 100 µM
GI50 (SW-620): > 100 µM (inactive)
GI50 (EKVX): > 100 µM (inactive)
GI50 (SN12C): > 100 µM (inactive)
GI50 (SK-MEL-28): > 100 µM (inactive)
GI50 (HCT-116): > 100 µM (inactive)
GI50 (RPMI-8226): > 100 µM (inactive)
GI50 (COLO 205): > 100 µM (inactive)
GI50 (NCI-H460): > 100 µM (inactive)
GI50 (RXF 393): > 100 µM (inactive)
GI50 (UO-31): > 100 µM (inactive)
GI50 (T47D): > 100 µM (inactive)
GI50 (SK-MEL-5): > 100 µM (inactive)
GI50 (OVCAR-8): > 100 µM (inactive)
GI50 (A549): > 100 µM (inactive)
GI50 (IGROV-1): > 100 µM (inactive)
GI50 (HOP-62): > 100 µM (inactive)
GI50 (SK-MEL-2): > 100 µM (inactive)
GI50 (MOLT-4): > 100 µM (inactive)
GI50 (ACHN): > 100 µM (inactive)
GI50 (OVCAR-4): > 100 µM (inactive)
GI50 (LOX IMVI): > 100 µM (inactive)
GI50 (UACC-62): > 100 µM (inactive)
GI50 (U-251): > 100 µM (inactive)
GI50 (NCI-H226): > 100 µM (inactive)
GI50 (SF-268): > 100 µM (inactive)
GI50 (SNB-19): > 100 µM (inactive)
GI50 (786-0): > 100 µM (inactive)
GI50 (Malme-3M): > 100 µM (inactive)
